Measurements published in publication PMC5122590, “Identification of a Dolabellane Type Diterpene Synthase and other Root-Expressed Diterpene Synthases in Arabidopsis” (Frontiers in Plant Science, 2016).

Key:
[1] = biological target: T1, TPS22 (Arabidopsis thaliana, UniProt Q9LQ27); experiment: in vitro assay, SPME-GC-MS; format: biochemical; details: main product (E)-beta-farnesene
T1 construct: N-terminal 41 aa (transit peptide) removed; TOPO-pET102; E. coli; partially purified
T1 sequence (Q9LQ27 42-603): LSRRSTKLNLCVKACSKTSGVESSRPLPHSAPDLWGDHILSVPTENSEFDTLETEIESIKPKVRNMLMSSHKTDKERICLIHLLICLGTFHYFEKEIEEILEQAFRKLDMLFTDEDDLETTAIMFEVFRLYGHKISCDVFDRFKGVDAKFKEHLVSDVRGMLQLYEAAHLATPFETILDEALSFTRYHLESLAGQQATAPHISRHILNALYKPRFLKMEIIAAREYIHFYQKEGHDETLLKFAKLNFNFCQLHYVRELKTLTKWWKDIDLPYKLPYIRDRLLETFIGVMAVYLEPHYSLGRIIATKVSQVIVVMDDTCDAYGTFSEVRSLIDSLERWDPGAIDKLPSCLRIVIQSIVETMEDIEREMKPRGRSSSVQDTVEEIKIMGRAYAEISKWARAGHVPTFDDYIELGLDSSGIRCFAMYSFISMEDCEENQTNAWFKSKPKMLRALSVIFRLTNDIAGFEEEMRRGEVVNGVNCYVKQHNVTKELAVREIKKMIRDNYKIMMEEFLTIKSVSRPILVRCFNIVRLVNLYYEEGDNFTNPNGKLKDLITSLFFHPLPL

[2] = biological target: T2, TPS25 (Arabidopsis thaliana, UniProt Q9LIA1); experiment: in vitro assay, SPME-GC-MS; format: biochemical; details: main product (E)-beta-farnesene
T2 construct: N-terminal 25 aa (transit peptide) removed; TOPO-pET102; E. coli; partially purified
T2 sequence (Q9LIA1 26-603): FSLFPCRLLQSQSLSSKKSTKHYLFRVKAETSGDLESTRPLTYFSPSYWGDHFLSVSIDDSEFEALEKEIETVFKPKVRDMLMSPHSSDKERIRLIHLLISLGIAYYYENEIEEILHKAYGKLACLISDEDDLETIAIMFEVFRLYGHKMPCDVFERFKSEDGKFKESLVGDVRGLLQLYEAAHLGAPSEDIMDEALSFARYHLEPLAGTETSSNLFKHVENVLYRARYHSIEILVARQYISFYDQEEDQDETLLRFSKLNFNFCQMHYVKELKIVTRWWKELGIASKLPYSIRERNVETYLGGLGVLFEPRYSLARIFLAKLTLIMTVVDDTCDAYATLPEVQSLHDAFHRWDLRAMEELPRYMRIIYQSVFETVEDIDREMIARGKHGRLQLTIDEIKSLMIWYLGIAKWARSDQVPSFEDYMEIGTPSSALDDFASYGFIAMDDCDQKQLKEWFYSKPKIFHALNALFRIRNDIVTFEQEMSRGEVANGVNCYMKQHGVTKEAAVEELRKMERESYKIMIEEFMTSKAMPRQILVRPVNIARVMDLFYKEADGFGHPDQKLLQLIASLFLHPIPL

[3] = biological target: T3, TPS26 (Arabidopsis thaliana, UniProt Q9C8E3); experiment: E. coli coexpression with (E,E)-FPP synthase, GC-MS; format: cell-based; details: trace alpha-humulene and (E)-beta-farnesene formed
T3 construct: N-terminal 38 aa removed; pET28a; RIKEN cDNA clone; expressed in E. coli with prenyl diphosphate synthase
T3 sequence (Q9C8E3 39-598): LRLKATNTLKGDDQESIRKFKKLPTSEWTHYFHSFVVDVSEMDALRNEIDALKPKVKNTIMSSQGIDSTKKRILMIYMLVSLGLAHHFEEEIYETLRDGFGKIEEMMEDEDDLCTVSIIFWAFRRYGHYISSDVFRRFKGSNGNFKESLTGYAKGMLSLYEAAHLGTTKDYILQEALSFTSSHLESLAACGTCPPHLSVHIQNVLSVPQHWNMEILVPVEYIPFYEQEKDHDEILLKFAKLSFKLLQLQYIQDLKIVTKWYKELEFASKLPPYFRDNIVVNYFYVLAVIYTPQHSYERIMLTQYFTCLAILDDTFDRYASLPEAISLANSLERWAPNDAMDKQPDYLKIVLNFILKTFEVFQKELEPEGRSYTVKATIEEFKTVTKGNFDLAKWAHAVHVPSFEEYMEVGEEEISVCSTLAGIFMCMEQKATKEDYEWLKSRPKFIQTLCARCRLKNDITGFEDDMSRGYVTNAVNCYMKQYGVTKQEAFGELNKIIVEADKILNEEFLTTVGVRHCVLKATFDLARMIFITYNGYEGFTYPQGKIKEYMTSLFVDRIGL

[4] = biological target: T4, TPS9 (Arabidopsis thaliana, UniProt Q8L7G4); experiment: as above; format: cell-based; details: trace nerolidol and (E)-beta-farnesene formed
T4 construct: gene TPS09; pET Duet; no truncation stated; RIKEN full-length cDNA clone; expressed in E. coli with prenyl diphosphate synthase
T4 sequence (Q8L7G4 1-607): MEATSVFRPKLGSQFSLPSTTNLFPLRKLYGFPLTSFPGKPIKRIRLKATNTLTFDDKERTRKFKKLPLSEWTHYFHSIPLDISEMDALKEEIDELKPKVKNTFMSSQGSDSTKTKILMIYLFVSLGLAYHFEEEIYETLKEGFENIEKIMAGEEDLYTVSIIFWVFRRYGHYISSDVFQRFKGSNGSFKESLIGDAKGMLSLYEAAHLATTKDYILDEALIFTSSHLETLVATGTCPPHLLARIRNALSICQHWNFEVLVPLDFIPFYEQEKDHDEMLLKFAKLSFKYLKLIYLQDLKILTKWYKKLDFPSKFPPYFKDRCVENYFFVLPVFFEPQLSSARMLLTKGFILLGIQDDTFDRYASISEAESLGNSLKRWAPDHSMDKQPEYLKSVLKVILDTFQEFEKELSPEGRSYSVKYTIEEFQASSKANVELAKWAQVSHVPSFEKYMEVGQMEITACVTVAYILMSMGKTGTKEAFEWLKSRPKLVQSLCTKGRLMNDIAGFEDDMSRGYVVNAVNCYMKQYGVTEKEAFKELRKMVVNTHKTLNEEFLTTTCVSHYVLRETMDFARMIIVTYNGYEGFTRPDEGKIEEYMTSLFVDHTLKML

[5] = biological target: T5, TPS6c (Arabidopsis thaliana, UniProt Q84UU9); experiment: E. coli coexpression with GGPP synthase, GC-MS; format: cell-based; details: product (3E,7E)-dolabella-3,7-dien-18-ol and an unknown diterpene
T5 construct: gene TPS06; N-terminal 53 aa removed; pET28a; expressed in E. coli with GGPP synthase
T5 sequence (Q84UU9 54-611): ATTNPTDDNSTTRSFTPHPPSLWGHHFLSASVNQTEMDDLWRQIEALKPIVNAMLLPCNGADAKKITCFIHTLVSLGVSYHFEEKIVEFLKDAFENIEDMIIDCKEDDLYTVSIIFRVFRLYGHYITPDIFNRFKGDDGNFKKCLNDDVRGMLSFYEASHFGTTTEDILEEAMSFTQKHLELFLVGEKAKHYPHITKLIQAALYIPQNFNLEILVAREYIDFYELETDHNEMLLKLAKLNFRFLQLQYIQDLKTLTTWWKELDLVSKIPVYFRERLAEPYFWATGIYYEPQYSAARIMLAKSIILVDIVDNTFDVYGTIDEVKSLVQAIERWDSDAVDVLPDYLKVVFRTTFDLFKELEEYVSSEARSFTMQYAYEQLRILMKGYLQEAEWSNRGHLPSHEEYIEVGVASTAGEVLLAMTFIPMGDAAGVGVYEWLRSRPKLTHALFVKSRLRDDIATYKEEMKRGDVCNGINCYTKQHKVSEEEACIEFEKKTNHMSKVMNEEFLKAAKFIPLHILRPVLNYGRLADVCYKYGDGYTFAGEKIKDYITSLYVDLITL

[6] = biological target: T6, TPS20c (Arabidopsis thaliana, UniProt Q9FI27); experiment: radiochemical terpene synthase assay; format: biochemical; details: labelled compound ([1-3H]-GGPP); six concentrations, triplicate
T6 construct: gene TPS20; first 53 aa (plastid transit peptide) removed; N-terminal His-tag (pET28a NdeI/XhoI); E. coli; partially purified
T6 sequence (Q9FI27 54-575): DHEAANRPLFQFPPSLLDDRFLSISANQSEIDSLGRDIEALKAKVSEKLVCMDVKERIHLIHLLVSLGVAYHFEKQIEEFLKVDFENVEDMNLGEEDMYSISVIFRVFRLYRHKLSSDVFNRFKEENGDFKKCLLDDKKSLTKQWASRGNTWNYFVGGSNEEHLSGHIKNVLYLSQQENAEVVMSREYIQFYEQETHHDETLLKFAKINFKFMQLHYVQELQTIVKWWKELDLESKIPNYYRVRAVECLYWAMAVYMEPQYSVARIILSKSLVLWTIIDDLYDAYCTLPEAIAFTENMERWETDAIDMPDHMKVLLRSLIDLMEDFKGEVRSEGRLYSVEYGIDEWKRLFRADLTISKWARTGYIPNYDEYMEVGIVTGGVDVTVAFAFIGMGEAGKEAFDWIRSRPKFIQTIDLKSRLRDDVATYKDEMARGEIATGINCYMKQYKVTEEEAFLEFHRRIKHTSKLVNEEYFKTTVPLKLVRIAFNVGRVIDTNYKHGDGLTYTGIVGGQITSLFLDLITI
Description: radiochemical terpene synthase assay on TPS20c

[7] = biological target: T4, TPS9; experiment: E. coli coexpression with GGPP synthase, GC-MS; format: cell-based; details: unidentified diterpene olefins formed
[8] = biological target: T7, TPS30 (Arabidopsis thaliana, UniProt Q9LH31); experiment: E. coli coexpression with GGPP synthase, GC-MS; format: cell-based; details: two unknown diterpenes formed
T7 construct: N-terminal 48 aa removed; pET28a; expressed in E. coli with prenyl diphosphate synthase
T7 sequence (Q9LH31 49-604): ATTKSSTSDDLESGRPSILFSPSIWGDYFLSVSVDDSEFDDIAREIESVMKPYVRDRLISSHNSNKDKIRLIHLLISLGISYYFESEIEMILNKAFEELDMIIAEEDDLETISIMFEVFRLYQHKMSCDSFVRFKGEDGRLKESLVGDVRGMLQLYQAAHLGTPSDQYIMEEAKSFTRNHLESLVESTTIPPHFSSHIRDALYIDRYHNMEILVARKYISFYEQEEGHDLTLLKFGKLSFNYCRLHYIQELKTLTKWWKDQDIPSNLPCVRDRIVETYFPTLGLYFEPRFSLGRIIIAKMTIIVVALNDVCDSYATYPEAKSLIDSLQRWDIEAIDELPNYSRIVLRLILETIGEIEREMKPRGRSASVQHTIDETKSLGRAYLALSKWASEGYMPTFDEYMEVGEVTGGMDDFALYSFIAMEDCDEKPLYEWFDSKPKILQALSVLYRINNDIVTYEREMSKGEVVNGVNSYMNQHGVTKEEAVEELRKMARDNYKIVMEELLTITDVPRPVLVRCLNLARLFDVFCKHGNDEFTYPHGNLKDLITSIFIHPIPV

SMILES | in vitro assay, SPME-GC-MS [1] | in vitro assay, SPME-GC-MS [2] | E. coli coexpression with (E,E)-FPP synthase, GC-MS [3] | E. coli coexpression with (E,E)-FPP synthase, GC-MS [4] | E. coli coexpression with GGPP synthase, GC-MS [5] | Km [6] [µM] | E. coli coexpression with GGPP synthase, GC-MS [7] | E. coli coexpression with GGPP synthase, GC-MS [8]
CC(C)=CCC/C(C)=C/CC/C(C)=C/COP(=O)(O)OP(=O)(O)O [(E,E)-FPP] | both proteins converted (E,E)-FPP into sesquiterpenes in vitro with (E)-β-farnesene as the main compound | both proteins converted (E,E)-FPP into sesquiterpenes in vitro with (E)-β-farnesene as the main compound | trace amounts of α-humulene and (E)-β-farnesene being produced by TPS26 | When co-expressed with (E,E)-FPP synthase, TPS9 produced trace amounts of nerolidol and (E)-β-farnesene | – | – | – | –
CC(C)=CCC/C(C)=C/CC/C(C)=C/CC/C(C)=C/COP(=O)(O)OP(=O)(O)O [GGPP] | – | – | – | – | TPS6c reacts with GGPP to produce dolabelladienol and an unknown diterpene | 6.29 ± 0.24 | TPS9 converted GGPP to one predominant diterpene olefin and eight minor diterpene products | protein encoded by gene TPS30 reacted with GGPP to form two unknown diterpenes
